From patent US4866046A, “Low-dosage sublingual aspirin” (Top Laboratories, Inc., priority 1988, dated 1989)

Assays:
Cyclooxygenase = Cyclooxygenase inhibition in volunteers after daily aspirin tablets; assay type: in vivo, human
Platelet Aggregation [1] = test: Platelet aggregation inhibition in volunteers, thrombin as aggregating agent; assay type: in vivo, human; conditions: daily dose, average (range)
Procedure: Platelet aggregation was measured against thrombin as aggregating agent. Tablets were all similarly made as described in Example 1.

Platelet Aggregation [2] = conditions: dose of 325 mg/day, in some people; cited from earlier work

For `CC(=O)Oc1ccccc1C(=O)O` [Aspirin, acetylsalicylic acid], the “% Inhibition, after 5-7 days, of Cyclooxygenase” value (“% Inhibition … of Cyclooxygenase” for short) (Cyclooxygenase; 10 mg. tablet, swallowed, average (range) of volunteers) was 55.6 (11-95) %, the “% Inhibition … of Cyclooxygenase” value (Cyclooxygenase; 20 mg. sublingual tablet, average (range)) was 83.3 (75-94) % and the “% Inhibition … of Cyclooxygenase” value (Cyclooxygenase; 80 mg. sublingual tablet (tablet of Example 1), average (range)) was 99.0 (95-100) %. The “% Inhibition … of Cyclooxygenase” value (Cyclooxygenase; 80 mg. tablet, swallowed, average (range)) was 76.3 (13-100) %, the “% Inhibition … of Cyclooxygenase” value (Cyclooxygenase; 325 mg tablet, swallowed, average (range)) was 97.7 (25-100) % and the “% Inhibition … of Cyclooxygenase” value (Cyclooxygenase; 325 mg. sublingual tablet, average) was 100.0%. The “% Inhibition, after 5-7 days, of Platelet Aggregation” value (Platelet Aggregation [1]; 10 mg. tablet, swallowed) was 27.5 (0-87) %, the “% Inhibition, after 5-7 days, of Platelet Aggregation” value (Platelet Aggregation [1]; 20 mg. sublingual tablet) was 45.3 (35-60) % and the “% Inhibition, after 5-7 days, of Platelet Aggregation” value (Platelet Aggregation [1]; 80 mg. sublingual tablet (tablet of Example 1)) was 95.7 (88-100) %. The “% Inhibition, after 5-7 days, of Platelet Aggregation” value (Platelet Aggregation [1]; 80 mg. tablet, swallowed) was 44.2 (5-98) %, the “% Inhibition, after 5-7 days, of Platelet Aggregation” value (Platelet Aggregation [1]; 325 mg. sublingual tablet) was 78.5 (62-98) % and the inhibition at 325 mg (Platelet Aggregation [1]; Homo sapiens, Platelet, 325 mg tablet, swallowed, read-out: % Inhibition, after 5-7 days, of Platelet Aggregation) was 70%. For the same compound, the inhibit platelet aggregation (Platelet Aggregation [2]) was 90%.
